# Test results taken from ChEMBL document CHEMBL5724914, “Linking interpersonal differences in gut microbiota composition and drug biotransformation activity” (2024).
# Legend:
# [1] = The drug is tested on Z-013 corresponding to rabbit gut metagenome with ENA study accession number: PRJEB37062 and ENA sample accession number: ERS12561813 for biotransformation under anaerobic condition. The drug concentrations were measured over 9 timepoints collected between 0 and 24 hours of incubation by liquid-chromatography-coupled mass spectrometry (LC–MS); details: 2 µM
# [2] = The drug is tested on Z-011 corresponding to mouse gut metagenome with ENA study accession number: PRJEB37062 and ENA sample accession number: ERS12561811 for biotransformation under anaerobic condition. The drug concentrations were measured over 9 timepoints collected between 0 and 24 hours of incubation by liquid-chromatography-coupled mass spectrometry (LC–MS); details: 2 µM
# [3] = The drug is tested on Z-006 corresponding to mouse gut metagenome with ENA study accession number: PRJEB37062 and ENA sample accession number: ERS12561806 for biotransformation under anaerobic condition. The drug concentrations were measured over 9 timepoints collected between 0 and 24 hours of incubation by liquid-chromatography-coupled mass spectrometry (LC–MS); details: 2 µM
# [4] = The drug is tested on WLS-370 corresponding to human gut metagenome with ENA study accession number: PRJEB37062 and ENA sample accession number: ERS12561793 for biotransformation under anaerobic condition. The drug concentrations were measured over 9 timepoints collected between 0 and 24 hours of incubation by liquid-chromatography-coupled mass spectrometry (LC–MS); details: 2 µM
# [5] = The drug is tested on WLS-350 corresponding to human gut metagenome with ENA study accession number: PRJEB37062 and ENA sample accession number: ERS12561789 for biotransformation under anaerobic condition. The drug concentrations were measured over 9 timepoints collected between 0 and 24 hours of incubation by liquid-chromatography-coupled mass spectrometry (LC–MS); details: 2 µM
# [6] = The drug is tested on WLS-082 corresponding to human gut metagenome with ENA study accession number: PRJEB37062 and ENA sample accession number: ERS12561751 for biotransformation under anaerobic condition. The drug concentrations were measured over 9 timepoints collected between 0 and 24 hours of incubation by liquid-chromatography-coupled mass spectrometry (LC–MS); details: 2 µM
# [7] = The drug is tested on WLS-052 corresponding to human gut metagenome with ENA study accession number: PRJEB37062 and ENA sample accession number: ERS12561747 for biotransformation under anaerobic condition. The drug concentrations were measured over 9 timepoints collected between 0 and 24 hours of incubation by liquid-chromatography-coupled mass spectrometry (LC–MS); details: 2 µM
# [8] = The drug is tested on WLS-039 corresponding to human gut metagenome with ENA study accession number: PRJEB37062 and ENA sample accession number: ERS12561746 for biotransformation under anaerobic condition. The drug concentrations were measured over 9 timepoints collected between 0 and 24 hours of incubation by liquid-chromatography-coupled mass spectrometry (LC–MS); details: 2 µM
# [9] = The drug is tested on WLS-010 corresponding to human gut metagenome with ENA study accession number: PRJEB37062 and ENA sample accession number: ERS12561743 for biotransformation under anaerobic condition. The drug concentrations were measured over 9 timepoints collected between 0 and 24 hours of incubation by liquid-chromatography-coupled mass spectrometry (LC–MS); details: 2 µM
# [10] = The drug is tested on WLS-007 corresponding to human gut metagenome with ENA study accession number: PRJEB37062 and ENA sample accession number: ERS12561742 for biotransformation under anaerobic condition. The drug concentrations were measured over 9 timepoints collected between 0 and 24 hours of incubation by liquid-chromatography-coupled mass spectrometry (LC–MS); details: 2 µM
# [11] = The drug is tested on WLS-006 corresponding to human gut metagenome with ENA study accession number: PRJEB37062 and ENA sample accession number: ERS12561741 for biotransformation under anaerobic condition. The drug concentrations were measured over 9 timepoints collected between 0 and 24 hours of incubation by liquid-chromatography-coupled mass spectrometry (LC–MS); details: 2 µM
# [12] = human gut metagenome, 24 h, 2 µM
# [13] = human gut metagenome, 24 h, 2 µM; remark: listed apart in the source
# [14] = human gut metagenome, 24 h, 2 µM; remark: listed apart in the source
# [15] = human gut metagenome, 24 h, 2 µM; remark: listed apart in the source
# [16] = human gut metagenome, 24 h, 2 µM; remark: listed apart in the source
# [17] = human gut metagenome, 24 h, 2 µM; remark: listed apart in the source
# [18] = human gut metagenome, 24 h, 2 µM; remark: listed apart in the source
# [19] = human gut metagenome, 24 h, 2 µM; remark: listed apart in the source
# [20] = human gut metagenome, 24 h, 2 µM; remark: listed apart in the source
# Note: call rule not given here.
SMILES,Bacterial Biotransformation [1],Bacterial Biotransformation [2],Bacterial Biotransformation [3],Bacterial Biotransformation [4],Bacterial Biotransformation [5],Bacterial Biotransformation [6],Bacterial Biotransformation [7],Bacterial Biotransformation [8],Bacterial Biotransformation [9],Bacterial Biotransformation [10],Bacterial Biotransformation [11],Bacterial Biotransformation [12],Bacterial Biotransformation [13],Bacterial Biotransformation [14],Bacterial Biotransformation [15],Bacterial Biotransformation [16],Bacterial Biotransformation [17],Bacterial Biotransformation [18],Bacterial Biotransformation [19],Bacterial Biotransformation [20]
CC[C@@]1(O)C(=O)OCc2c1cc1n(c2=O)Cc2cc3c(CN(C)C)c(O)ccc3nc2-1 [TOPOTECAN],Compound NOT metabolized,Compound NOT metabolized,Compound NOT metabolized,Compound NOT metabolized,Compound NOT metabolized,Compound NOT metabolized,Compound NOT metabolized,Compound NOT metabolized,Compound NOT metabolized,Compound NOT metabolized,Compound NOT metabolized,Compound NOT metabolized,Compound NOT metabolized,Compound NOT metabolized,Compound NOT metabolized,Compound NOT metabolized,Compound NOT metabolized,Compound NOT metabolized,Compound NOT metabolized,Compound NOT metabolized
O=C1CN2Cc3c(ccc(Cl)c3Cl)N=C2N1 [ANAGRELIDE],Compound NOT metabolized,Compound NOT metabolized,Compound NOT metabolized,Compound NOT metabolized,Compound NOT metabolized,Compound metabolized,Compound metabolized,Compound NOT metabolized,Compound metabolized,Compound metabolized,Compound metabolized,Compound NOT metabolized,Compound metabolized,Compound NOT metabolized,Compound NOT metabolized,Compound NOT metabolized,Compound metabolized,Compound metabolized,Compound NOT metabolized,Compound NOT metabolized
CN(C)C(=O)Oc1cccc([N+](C)(C)C)c1.[Br-] [NEOSTIGMINE BROMIDE],Compound NOT metabolized,Compound NOT metabolized,Compound NOT metabolized,Compound NOT metabolized,Compound NOT metabolized,Compound NOT metabolized,Compound NOT metabolized,Compound NOT metabolized,Compound NOT metabolized,Compound NOT metabolized,Compound NOT metabolized,Compound NOT metabolized,Compound NOT metabolized,Compound NOT metabolized,Compound NOT metabolized,Compound NOT metabolized,Compound NOT metabolized,Compound NOT metabolized,Compound NOT metabolized,Compound NOT metabolized
CC1Cc2ccccc2N1NC(=O)c1ccc(Cl)c(S(N)(=O)=O)c1 (stereo not given) [INDAPAMIDE],Compound NOT metabolized,Compound NOT metabolized,Compound NOT metabolized,Compound NOT metabolized,Compound NOT metabolized,Compound NOT metabolized,Compound NOT metabolized,Compound NOT metabolized,Compound NOT metabolized,Compound NOT metabolized,Compound NOT metabolized,Compound NOT metabolized,Compound NOT metabolized,Compound NOT metabolized,Compound NOT metabolized,Compound NOT metabolized,Compound NOT metabolized,Compound NOT metabolized,Compound NOT metabolized,Compound NOT metabolized
CN1CCN2c3ccccc3Cc3ccccc3C2C1 (stereo not given) [MIANSERIN],Compound NOT metabolized,Compound metabolized,Compound NOT metabolized,Compound NOT metabolized,Compound NOT metabolized,Compound NOT metabolized,Compound NOT metabolized,Compound metabolized,Compound NOT metabolized,Compound NOT metabolized,Compound NOT metabolized,Compound NOT metabolized,Compound NOT metabolized,Compound NOT metabolized,Compound NOT metabolized,Compound NOT metabolized,Compound metabolized,Compound metabolized,Compound NOT metabolized,Compound NOT metabolized
